{"source": "paper PMC7005646", "about": "“Overcoming resistance to anabolic SARM therapy in experimental cancer cachexia with an HDAC inhibitor” (EMBO Molecular Medicine, 2020)", "key": {"class I HDACs": {"test_system": "class I HDACs", "experiment": "In vitro HDAC inhibition assay, class I isoforms", "format": "biochemical, human", "details": "1 μM AR‐42; range over isoforms", "procedure": "HDAC activity was measured by a commercial vendor using human recombinant HDAC enzymes and fluorogenic HDAC substrates (Eurofins Cerep SA, Celle L'Evescault, France). Substrate concentrations ranged from 20 to 400 μM, and incubation conditions ranged from 10 to 90 min (RT or 37°C), depending on isoform. Results are expressed as percent inhibition of control specific activity in the presence of 1 μM AR‐42."}, "[1]": {"experiment": "AR‐42 plasma and tissue pharmacokinetics, single oral dose, tumor‐free CD2F1 mice", "format": "in vivo, mouse", "details": "for Plasma exposure: mouse", "procedure": "Pharmacokinetic studies were performed as previously described (Cheng et al, 2016) with the following modifications. Seven week‐old, male, tumor‐free CD2F1 mice (n = 3 per dose and time point) were administered single oral doses of 10, 20, and 50 mg/kg AR‐42 and then sacrificed 0.25, 4, and 24 h later. Fifty milligrams of gastrocnemius muscle tissue was flash‐frozen in 2 ml BeadBlaster™ 24 (MIDSCI; St. Louis, MO) tubes and stored at −80°C. Samples were homogenized for 6 cycles using a BeadBlaster 24 with analytical standards in 1 mL methanol and then centrifuged at 15,600 g (4°C) for 10 min. Supernatants were transferred to glass tubes, dried under nitrogen, and then reconstituted in 200 μl 40% methanol/0.1% formic acid. Plasma preparation and LC‐MS/MS analyses were performed as previously described (Sborov et al, 2017). Mouse plasma and muscle pharmacokinetic parameters were estimated as previously described with the exception of Cavg, which was calculated as AUCall/[dosing interval(h)]."}, "C‐26 tumor‐bearing mice": {"test_system": "C‐26 tumor‐bearing mice", "experiment": "Confirmatory AR‐42/GTx‐024 combination study (Study 2), male C‐26 tumor‐bearing mice", "format": "in vivo, mouse", "procedure": "These studies were performed as previously described (Tseng et al, 2015a) with modifications. Tumors were established in the right flank of CD2F1 mice by subcutaneous injection of C‐26 cells (0.5 × 10^6 cells in 0.1 ml). […] TFM‐4AS‐1 (a potent experimental SARM), DHT, and vehicles were administered by subcutaneous injection.\n(§1) This confirmatory study was performed exactly as Study 1 with expanded animal numbers. Tumor‐free control groups were maintained at 6 animals each, whereas 10 animals were included in each of the tumor‐bearing groups. […] Grip strength was measured on study days 0 (baseline) and 16. Due to rapid model progression, this study was terminated on day 17 after only 12 days of treatment.\nForelimb grip strength was measured using Bio‐GS3 Grip Strength Test Meter (Forceleader DBA Bioseb, Pinellas Park, FL). Each mouse was held by the base of its tail and lowered over the apparatus until its forepaws grasped the metal pull bar. The mouse was then gently pulled horizontally in a straight line away from the grip strength meter until the mouse released the bar. The force applied to the bar at the moment of release was recorded as the peak force. Five measurements were taken from each mouse, the average of which was designated as the mouse's grip strength."}, "serum cytokines": {"test_system": "serum cytokines", "experiment": "Serum cytokine panel (multiplex), terminal samples from Study 2", "format": "in vivo, mouse", "procedure": "as §1\nSerum cytokine panel analyses were performed by a commercial vendor (Eve Technologies, Calgary, Canada) as previously described (Tseng et al, 2015a). Serum interleukin‐6 (IL‐6) was measured using a commercial ELISA kit (R&D Systems, Minneapolis, MN, USA) according to the manufacturer's instructions."}, "pSTAT3 in C‐26 tumors": {"test_system": "pSTAT3 in C‐26 tumors", "experiment": "Phospho‐STAT3/STAT3 ELISA in C‐26 tumor tissues, Study 2", "format": "in vivo, mouse", "details": "Study 2, 10 mg/kg", "procedure": "Expression of phospho‐STAT3 and total STAT3 in C‐26 tumor tissues was measured using commercial sandwich ELISA kits according to the manufacturer's instructions (PathScan® Phospho‐Stat3, #7300, and Total Stat3, #7305, Cell Signaling Technology, Danvers, MA)."}, "[2]": {"parameters": "method as in Sborov et al, 2017", "details": "patients; ref Sborov et al, 2017; cited from earlier work"}, "tumor‐free mice": {"test_system": "tumor‐free mice", "parameters": "method as in Tseng et al, 2015a", "details": "ref Tseng et al, 2015a, cited from earlier work"}, "[3]": {"details": "Study 2, AR‐42 10 mg/kg alone or with GTx‐024 15 mg/kg"}, "[4]": {"details": "C‐26 Tumor‐bearing, GTx‐024 15 mg/kg, AR‐42 10 mg/kg, or both, mean ± SD"}}, "data": [{"compound": "CC(C)[C@H](C(=O)Nc1ccc(C(=O)NO)cc1)c1ccccc1", "note": "[AR‐42]", "values": [{"measurement": "inhibition of class I HDACs", "setting": "class I HDACs", "result": "72–95%"}, {"measurement": "AUCall", "setting": "[1]; 10 mg/kg oral, Muscle", "result": "11,076.7 nM*h"}, {"measurement": "Cavg", "setting": "[1]; 10 mg/kg oral, Muscle", "result": 461.5, "unit": "nM"}, {"measurement": "Cmax", "setting": "[1]; 10 mg/kg oral, Muscle", "result": 1.11, "unit": "µM"}, {"measurement": "AUCall", "setting": "[1]; 10 mg/kg oral, Plasma", "result": "10,931.6 nM*h"}, {"measurement": "Cmax", "setting": "[1]; 10 mg/kg oral, Plasma", "result": 1.5, "unit": "µM"}, {"measurement": "Cavg", "setting": "[1]; 10 mg/kg oral, Plasma, AUCall/dosing interval", "result": 455.5, "unit": "nM"}, {"measurement": "gastrocnemius muscle concentration", "setting": "[1]; 10 mg/kg oral, remained above for 4 h", "result": "above 700 nM"}, {"measurement": "AUCall", "setting": "[1]; 20 mg/kg oral, Muscle", "result": "36,504.2 nM*h"}, {"measurement": "Cavg", "setting": "[1]; 20 mg/kg oral, Muscle", "result": "1,521.0 nM"}, {"measurement": "Cmax", "setting": "[1]; 20 mg/kg oral, Muscle", "result": 3.66, "unit": "µM"}, {"measurement": "AUCall", "setting": "[1]; 20 mg/kg oral, Plasma", "result": "34,369.3 nM*h"}, {"measurement": "Cavg", "setting": "[1]; 20 mg/kg oral, Plasma", "result": "1,432.1 nM"}, {"measurement": "Cmax", "setting": "[1]; 20 mg/kg oral, Plasma", "result": 3.86, "unit": "µM"}, {"measurement": "AUCall", "setting": "[1]; 50 mg/kg oral, Muscle", "result": "72,624.7 nM*h"}, {"measurement": "Cavg", "setting": "[1]; 50 mg/kg oral, Muscle", "result": "3,026.2 nM"}, {"measurement": "Cmax", "setting": "[1]; 50 mg/kg oral, Muscle", "result": 6.37, "unit": "µM"}, {"measurement": "AUCall", "setting": "[1]; 50 mg/kg oral, Plasma", "result": "74,307.3 nM*h"}, {"measurement": "Cavg", "setting": "[1]; 50 mg/kg oral, Plasma", "result": "3,096.1 nM"}, {"measurement": "Cmax", "setting": "[1]; 50 mg/kg oral, Plasma", "result": 7.93, "unit": "µM"}, {"measurement": "mouse plasma exposure at 50 mg/kg over well‐tolerated human exposure", "setting": "[1]; 74.3 vs 8.5 μM*h", "result": 8.7, "unit": "fold"}, {"measurement": "Plasma exposure", "setting": "[1]; single oral dose 10 mg/kg", "result": 10.9, "unit": "µM·h"}, {"measurement": "Plasma exposure", "setting": "[1]; single oral dose 50 mg/kg", "result": 74.3, "unit": "µM·h"}, {"measurement": "effect on adipose tissue (epididymal fat pad)", "setting": "C‐26 tumor‐bearing mice; Study 2, 10 mg/kg", "result": "no impact on adipose tissue"}, {"measurement": "forelimb grip strength over vehicle‐treated tumor‐bearing controls", "setting": "C‐26 tumor‐bearing mice; [3]", "result": "improved grip strength"}, {"measurement": "gastrocnemius and quadriceps mass relative to GTx‐024 monotherapy", "setting": "C‐26 tumor‐bearing mice; [3]", "result": "significantly improved gastrocnemius and quadriceps mass"}, {"measurement": "GM‐CSF, serum", "setting": "serum cytokines; [4]", "result": "18.70 ± 3.77", "unit": "pg/mL"}, {"measurement": "G‐CSF, serum", "setting": "serum cytokines; [4]", "result": "2782.18 ± 2191.30", "unit": "pg/mL"}, {"measurement": "IL‐6, serum", "setting": "serum cytokines; [4]", "result": "256.59 ± 183.1", "unit": "pg/mL"}, {"measurement": "IL‐17, serum", "setting": "serum cytokines; [4]", "result": "1.82 ± 0.85", "unit": "pg/mL"}, {"measurement": "IP‐10, serum", "setting": "serum cytokines; [4]", "result": "215.35 ± 52.46", "unit": "pg/mL"}, {"measurement": "KC, serum", "setting": "serum cytokines; [4]", "result": "363.38 ± 200.65", "unit": "pg/mL"}, {"measurement": "LIF, serum", "setting": "serum cytokines; [4]", "result": "15.79 ± 5.15", "unit": "pg/mL"}, {"measurement": "LIX, serum", "setting": "serum cytokines; [4]", "result": "2515.38 ± 3119.67", "unit": "pg/mL"}, {"measurement": "M‐CSF, serum", "setting": "serum cytokines; [4]", "result": "20.21 ± 4.63", "unit": "pg/mL"}, {"measurement": "effect on circulating cytokine levels", "setting": "serum cytokines; Study 2, 10 mg/kg monotherapy, tumor‐bearing", "result": "did not significantly reduce circulating levels of any evaluated cytokine"}, {"measurement": "pSTAT3 signaling within the C‐26 tumors", "setting": "pSTAT3 in C‐26 tumors", "result": "did not significantly suppress"}, {"measurement": "well‐tolerated plasma exposure in humans", "setting": "[2]", "result": 8.5, "unit": "µM·h"}, {"measurement": "maximally tolerated dose in mice", "setting": "tumor‐free mice; oral gavage every other day", "result": 50, "unit": "mg/kg"}, {"measurement": "effect on lower limb skeletal muscle masses relative to controls", "setting": "tumor‐free mice; tumor‐free mice, 50 mg/kg every other day", "result": "no significant effects on lower limb skeletal muscle masses"}, {"measurement": "reduction in epididymal adipose tissue masses", "setting": "tumor‐free mice; tumor‐free mice, 50 mg/kg oral every other day", "result": "~50", "unit": "%"}]}]}
